Broadly, the MIC is the lowest concentration that inhibits growth of the organism.

Holding throughout (format): functional
Experiment [1] deals with Mycobacterium tuberculosis. In words: Antimycobacterial activity against rifampicin-resistant Mycobacterium tuberculosis H37Rv ATCC 35838 assessed as inhibition of bacterial growth incubated for 48 hrs by resazurin microtitre assay. On the technique in general: Alamar Blue is a resazurin reagent that responds to reducing activity.
The test system of experiment [2] is Mycobacterium tuberculosis. Kind of experiment: Antimycobacterial activity against isoniazid-resistant Mycobacterium tuberculosis H37Rv ATCC 35822 assessed as inhibition of bacterial growth incubated for 48 hrs by broth microdilution assay.
Experiment [3] concerns Mycobacterium tuberculosis. In words: Antimycobacterial activity against Streptomycin-resistant Mycobacterium tuberculosis H37Rv ATCC 35820 assessed as inhibition of bacterial growth incubated for 48 hrs by resazurin microtitre assay.
Experiment [4] concerns Mycobacterium tuberculosis. Kind of experiment: Antimycobacterial activity against ethambutol-resistant Mycobacterium tuberculosis H37Rv ATCC 35837 assessed as inhibition of bacterial growth incubated for 48 hrs by resazurin microtitre assay.

Values after ≈ are worked out from the molar mass of the structure shown.

`O=C(/C=C/c1ccc([N+](=O)[O-])o1)c1ccc(Nc2nc3ccccc3o2)cc1`: the MIC in experiment [1] is 0.03 µg/mL (≈ 0.0799 µM); in experiment [2], 0.06 µg/mL (≈ 0.16 µM); in experiment [3], 0.12 µg/mL (≈ 0.32 µM); in experiment [4] it was 0.03 µg/mL (≈ 0.0799 µM).

As for `Cc1ccc2oc(Nc3ccc(C(=O)/C=C/c4ccc([N+](=O)[O-])o4)cc3)nc2c1`, the MIC worked out at 0.03 µg/mL (≈ 0.077 µM) in experiment [1], 0.12 µg/mL (≈ 0.308 µM) in experiment [2], 0.06 µg/mL (≈ 0.154 µM) in experiment [3] and 0.06 µg/mL (≈ 0.154 µM) in experiment [4].

Regarding `O=C(/C=C/c1ccc([N+](=O)[O-])o1)c1ccc(Nc2nc3cc(Cl)ccc3o2)cc1`, the MIC in experiment [1] was 0.03 µg/mL (≈ 0.0732 µM); in experiment [2], 0.06 µg/mL (≈ 0.146 µM); in experiment [3], 0.06 µg/mL (≈ 0.146 µM); in experiment [4], 0.03 µg/mL (≈ 0.0732 µM).

On to `O=C(/C=C/c1ccc([N+](=O)[O-])o1)c1ccc(Nc2nc3cc([N+](=O)[O-])ccc3o2)cc1`, for which the MIC is 0.03 µg/mL (≈ 0.0714 µM) in experiment [1], 0.25 µg/mL (≈ 0.595 µM) in experiment [2], 0.12 µg/mL (≈ 0.285 µM) in experiment [3] and 0.06 µg/mL (≈ 0.143 µM) in experiment [4].

Take `O=C(/C=C/c1ccc([N+](=O)[O-])o1)c1cccc(Nc2nc3ccccc3o2)c1`: the MIC in experiment [1] stood at 0.03 µg/mL (≈ 0.0799 µM); in experiment [2], 0.25 µg/mL (≈ 0.666 µM); in experiment [3], 0.12 µg/mL (≈ 0.32 µM); in experiment [4], 0.06 µg/mL (≈ 0.16 µM).

`CC[C@@H](CO)NCCN[C@@H](CC)CO` [ETHAMBUTOL]: the MIC amounted to 1 µg/mL (≈ 4.89 µM) in experiment [1], 1 µg/mL (≈ 4.89 µM) in experiment [2], 1 µg/mL (≈ 4.89 µM) in experiment [3] and 32 µg/mL (≈ 157 µM) in experiment [4].

For the compound `NNC(=O)c1ccncc1` [ISONIAZID], the MIC was 0.03 µg/mL (≈ 0.219 µM) in experiment [1], more than 64 µg/mL in experiment [2], 0.03 µg/mL (≈ 0.219 µM) in experiment [3] and 0.03 µg/mL (≈ 0.219 µM) in experiment [4].

As for `CO[C@H]1/C=C/O[C@@]2(C)Oc3c(C)c(O)c4c(O)c(c(/C=N/N5CCN(C)CC5)c(O)c4c3C2=O)NC(=O)/C(C)=C\C=C\[C@H](C)[C@H](O)[C@@H](C)[C@@H](O)[C@@H](C)[C@H](OC(C)=O)[C@@H]1C` [RIFAMPIN], the minimal inhibitory concentration (MIC) in experiment [1] worked out at 64 µg/mL (≈ 77.8 µM); in experiment [2], 0.03 µg/mL (≈ 0.0365 µM); in experiment [3], 0.03 µg/mL (≈ 0.0365 µM); in experiment [4] it was 0.03 µg/mL (≈ 0.0365 µM).

As to `CN[C@@H]1[C@H](O[C@H]2[C@H](O[C@H]3[C@H](O)[C@@H](O)[C@H](N=C(N)N)[C@@H](O)[C@@H]3N=C(N)N)O[C@@H](C)[C@]2(O)C=O)O[C@@H](CO)[C@H](O)[C@H]1O` [STREPTOMYCIN], the MIC was 1 µg/mL (≈ 1.72 µM) in experiment [1], 1 µg/mL (≈ 1.72 µM) in experiment [2], more than 64 µg/mL in experiment [3] and 1 µg/mL (≈ 1.72 µM) in experiment [4].

For the origin of these results see ChEMBL document CHEMBL5143690, “Identification of nitrofuranylchalcone tethered benzoxazole-2-amines as potent inhibitors of drug resistant Mycobacterium tuberculosis demonstrating bactericidal efficacy” (Bioorg Med Chem, 2022).
